Measurements from ChEMBL document CHEMBL1201862, “PubChem BioAssay data set” (2004).
The source made the active and inactive calls.

Columns and labels:
[1] = biological target: Paired box protein Pax-8 (Homo sapiens, UniProt Q06710); assay: inhibitors of PAX8-driven TPO luciferase reporter, dose response, RMG-I cells, cherry-pick (AID 687027); assay type: functional, cell-based;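 also: luciferase reporter driven by Pax8 target thyroperoxidase promoter measured by SteadyGlo luminescence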
[2] = A549 cell cytotoxicity, dose response, cytotoxicity control, 24 h, CellTiter-Glo luminescence, cherry-picks (AID 1053115); assay type: functional, cell-based; settings: A549, 24 h
[3] = biological target: T1, Disintegrin and metalloproteinase domain-containing protein 17 (Homo sapiens, UniProt P78536); assay: ADAM17 protease inhibitors, dose response, counter-screen for ADAM10 exosite inhibitor project, biochemical, quenched FRET substrate (AID 743253)
[4] = ADAM10 inhibitors, peptide cleavage, dose response, biochemical, QFRET (AID 743254);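 also: ADAM10 enzyme with the DM2 quenched FRET peptide as substrate; EDANS fluorescence gain as the protease cuts the substrate; inhibitor potency against ADAM10 proteolytic activity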
[5] = biological target: Caspase-9 (Homo sapiens, UniProt P55211); assay: caspase-9 enzyme inhibition, dose response, selectivity assay for caspase-6 inhibitor project, biochemical, fluorescence, plate reader, cherry-picked samples (AID 743293)
[6] = biological target: T2, Sentrin-specific protease 8 (Homo sapiens, UniProt Q96LD8); assay type: functional
T2 sequence (Q96LD8 whole entry): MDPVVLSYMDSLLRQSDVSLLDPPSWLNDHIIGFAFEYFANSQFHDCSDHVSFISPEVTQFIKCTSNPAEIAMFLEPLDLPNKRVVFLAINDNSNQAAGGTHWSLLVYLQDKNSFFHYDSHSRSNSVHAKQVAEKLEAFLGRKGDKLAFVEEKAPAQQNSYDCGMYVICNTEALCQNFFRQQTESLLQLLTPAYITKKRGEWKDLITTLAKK

[7] = biological target: T2, Sentrin-specific protease 8; assay type: functional; remark: listed apart in the source
[8] = biological target: Caspase-7 (Homo sapiens, UniProt P55210); assay: human caspase-7 inhibitors, dose response, selectivity assay for caspase-6 inhibitor project, biochemical, DEVD-R110 fluorescence, cherry-pick (AID 743295)
[9] = biological target: Caspase-8 (Homo sapiens, UniProt Q14790); assay: caspase-8 inhibition counter-screen, dose response, selectivity assay for caspase-6 inhibitor project, biochemical, Z-IETD-R110 fluorescence, cherry-picked samples (AID 743294)
[10] = biological target: T3, Caspase-6 (Homo sapiens, UniProt P55212); assay: human caspase-6 inhibitors, dose response, biochemical, VEID-R110 fluorescence, cherry-pick (AID 720632)
T3 sequence (P55212 whole entry): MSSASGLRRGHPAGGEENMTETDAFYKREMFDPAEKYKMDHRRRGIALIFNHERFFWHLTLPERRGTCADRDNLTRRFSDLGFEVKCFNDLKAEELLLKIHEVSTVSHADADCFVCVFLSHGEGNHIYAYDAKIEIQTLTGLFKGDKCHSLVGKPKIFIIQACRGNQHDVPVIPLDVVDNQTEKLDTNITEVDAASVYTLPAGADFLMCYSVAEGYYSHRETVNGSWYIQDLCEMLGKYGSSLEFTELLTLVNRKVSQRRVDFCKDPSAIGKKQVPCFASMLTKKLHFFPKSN

[11] = biological target: T4, Caspase-3 (Homo sapiens, UniProt P42574); assay: caspase-3 enzyme inhibitors, selectivity check, dose response, selectivity assay for caspase-6 allosteric inhibitor project, biochemical, fluorescence, cherry-picked samples (AID 743291)
T4 sequence (P42574 whole entry): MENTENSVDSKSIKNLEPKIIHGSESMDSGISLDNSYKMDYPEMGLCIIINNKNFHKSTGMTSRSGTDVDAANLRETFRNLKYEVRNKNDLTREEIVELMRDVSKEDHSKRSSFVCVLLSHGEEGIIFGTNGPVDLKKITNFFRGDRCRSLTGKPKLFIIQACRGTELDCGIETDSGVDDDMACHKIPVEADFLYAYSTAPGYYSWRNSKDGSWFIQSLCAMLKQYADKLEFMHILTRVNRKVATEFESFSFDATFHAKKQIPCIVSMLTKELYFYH

[12] = MITF: Counter assay: A375 proliferation Measured in Cell-Based System Using Plate Reader - 2084-03_Inhibitor_Dose_DryPowder_Activity_Set8.; assay type: functional; settings: A-375
[13] = MITF Orthogonal Assay: SK-MEL-5 CTG Assay Measured in Cell-Based System Using Plate Reader - 2084-02_Inhibitor_Dose_DryPowder_Activity_Set7.; assay type: functional
[14] = TRPM1 promoter luciferase reporter signal decrease, dose response, MITF inhibitor project, cell-based, SK-MEL-5, dry powder, set 8 (AID 624430); assay type: functional
[15] = HepG2 cell cytotoxicity, dose response, cytotoxicity control, ATP luminescence, cherry-pick, set 6 (AID 1053125); assay type: functional, cell-based
[16] = cells
[17] = cells; settings: A549
[18] = cells; settings: HEK293
[19] = CEM21 cell cytotoxicity, dose response, cytotoxicity control, plate reader, dry powder (AID 687026); assay type: functional, cell-based
[20] = inhibitors of HIV Env-driven cell fusion, dose response, cherry-pick (AID 652057); assay type: functional, cell-based
[21] = ZM109 Env clade C HIV-1 fusion inhibitors, dose response, HeLa effector, CEM target cells, luciferase, cherry-pick (AID 652058); assay type: functional, cell-based
[22] = inhibitors of clade B AD8 Env fusion, dose response, cell-based, cherry-pick (AID 652062); assay type: functional;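 also: luciferase signal from cell-cell fusion driven by HIV-1 clade B AD8 Env; potency is for inhibitors of fusion seen as a drop in luminescence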
[23] = cells; assay type: functional, cell-based; settings: HEK-CNG
[24] = biological target: Estrogen receptor beta (Homo sapiens, UniProt Q92731);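 also: recombinant ER-beta bound to coactivator SRC1 peptide in presence of estradiol agonist; inhibitors block coactivator peptide binding and lower the FRET signal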
[25] = HIV Env cell-cell fusion inhibitors, dose response, HIV entry, plate reader, dry powder (AID 687023); assay type: functional, cell-based
[26] = biological target: Galanin receptor type 3 (Homo sapiens, UniProt O60755); assay: Fluorescence-based cell-based primary high throughput dose response assay to identify antagonists of the Galanin Receptor 3 (GalR3).; assay type: functional
[27] = BHK-21 cell cytotoxicity, cytotoxicity control for flavivirus guanylyltransferase probe project, secondary screen (AID 624078); assay type: functional
[28] = ADAM10 protease inhibitors, dose response, selectivity assay for ADAM17 exosite inhibitor project, biochemical, FRET peptide substrate, recombinant human ADAM10 (AID 743259);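 also: ADAM10 enzyme cleaving a FRET peptide substrate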
[29] = biological target: T1, Disintegrin and metalloproteinase domain-containing protein 17; assay: exosite inhibitors of ADAM17, dose response, biochemical (AID 743260)
[30] = Luminescence Cell-Based Dose Retest to Confirm Inhibitors of Cancer Stem Cells. [Related pubchem assays (depositor defined):AID2717, AID2721]; assay type: functional; settings: Homo sapiens
[31] = biological target: T5, Oxysterols receptor LXR-beta (Homo sapiens, UniProt P55055); assay type: functional, cell-based;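 also: agonist activity at LXR measured by a cell-based luminescence readout across a dose range, run as a counterscreen for daf-12 agonists; HEK293 cells with Gal4-LXR fusion and GAL4-driven luciferase reporter; potency for activation of Gal4-LXR reporter so compounds are agonists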
T5 sequence (P55055 whole entry): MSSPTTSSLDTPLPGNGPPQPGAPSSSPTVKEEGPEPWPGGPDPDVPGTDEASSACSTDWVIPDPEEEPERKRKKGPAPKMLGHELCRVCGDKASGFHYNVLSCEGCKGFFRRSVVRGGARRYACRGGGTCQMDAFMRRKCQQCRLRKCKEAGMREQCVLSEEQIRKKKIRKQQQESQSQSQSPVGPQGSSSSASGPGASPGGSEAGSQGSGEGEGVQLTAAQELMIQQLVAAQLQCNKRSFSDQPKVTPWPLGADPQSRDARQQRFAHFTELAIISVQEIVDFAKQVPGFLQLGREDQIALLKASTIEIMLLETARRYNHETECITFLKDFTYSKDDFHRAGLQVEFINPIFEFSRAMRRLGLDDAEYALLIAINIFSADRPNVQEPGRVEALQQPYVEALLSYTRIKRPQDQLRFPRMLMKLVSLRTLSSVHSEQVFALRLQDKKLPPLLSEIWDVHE

[32] = Vero E6 cell cytotoxicity, dose response, cytotoxicity control for non-replicating M. tuberculosis project, secondary assay (AID 492998); assay type: functional, VeroE6; settings: Vero C1008
[33] = cells; assay type: functional
[34] = THP-1 cell cytotoxicity, dose response, cytotoxicity control for non-replicating M. tuberculosis project (AID 489025); assay type: functional
[35] = biological target: fMet-Leu-Phe receptor (Homo sapiens, UniProt P21462); assay: FPR ligands, dose response (AID 519); assay type: functional
[36] = HepG2 cell cytotoxicity, dose response, cytotoxicity control for non-replicating M. tuberculosis project (AID 489018); assay type: functional; settings: Mycobacterium tuberculosis
[37] = HEK293 Cytotoxicity Assay Measured in Cell-Based System Using Plate Reader - 7071-01_Inhibitor_Dose_CherryPick_Activity_Set2.; assay type: functional
[38] = system: HEK293; assay: HEK293T cell cytotoxicity, dose response, cytotoxicity control, ATP luminescence, cherry-pick samples (AID 687005); assay type: functional, cell-based; settings: Homo sapiens;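 also: cells exposed to compound for 48 hours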
[39] = inhibitors of non-replicating M. tuberculosis, dose response, luciferase, dry powder (AID 651620); assay type: functional; settings: Mycobacterium tuberculosis
[40] = inhibitors of non-replicating M. tuberculosis, dose response, luciferase, dry powder (AID 651619); assay type: functional; settings: Mycobacterium tuberculosis
[41] = biological target: Kallikrein-7 (Homo sapiens, UniProt P49862); assay: Fluorescence Intensity-based biochemical primary high throughput dose response assay to identify activators of kallikrein-7 (K7) zymogen.
Chain of Kallikrein-7 (P49862 whole entry): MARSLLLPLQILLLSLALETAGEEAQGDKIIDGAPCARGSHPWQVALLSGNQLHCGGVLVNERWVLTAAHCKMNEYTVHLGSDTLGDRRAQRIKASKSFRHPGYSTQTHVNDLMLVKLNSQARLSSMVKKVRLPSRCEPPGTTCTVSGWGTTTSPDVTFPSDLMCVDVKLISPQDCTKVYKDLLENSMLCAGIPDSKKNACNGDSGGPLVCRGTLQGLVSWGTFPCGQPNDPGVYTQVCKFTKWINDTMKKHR

T1 sequence (P78536 whole entry, the tested form may be a part): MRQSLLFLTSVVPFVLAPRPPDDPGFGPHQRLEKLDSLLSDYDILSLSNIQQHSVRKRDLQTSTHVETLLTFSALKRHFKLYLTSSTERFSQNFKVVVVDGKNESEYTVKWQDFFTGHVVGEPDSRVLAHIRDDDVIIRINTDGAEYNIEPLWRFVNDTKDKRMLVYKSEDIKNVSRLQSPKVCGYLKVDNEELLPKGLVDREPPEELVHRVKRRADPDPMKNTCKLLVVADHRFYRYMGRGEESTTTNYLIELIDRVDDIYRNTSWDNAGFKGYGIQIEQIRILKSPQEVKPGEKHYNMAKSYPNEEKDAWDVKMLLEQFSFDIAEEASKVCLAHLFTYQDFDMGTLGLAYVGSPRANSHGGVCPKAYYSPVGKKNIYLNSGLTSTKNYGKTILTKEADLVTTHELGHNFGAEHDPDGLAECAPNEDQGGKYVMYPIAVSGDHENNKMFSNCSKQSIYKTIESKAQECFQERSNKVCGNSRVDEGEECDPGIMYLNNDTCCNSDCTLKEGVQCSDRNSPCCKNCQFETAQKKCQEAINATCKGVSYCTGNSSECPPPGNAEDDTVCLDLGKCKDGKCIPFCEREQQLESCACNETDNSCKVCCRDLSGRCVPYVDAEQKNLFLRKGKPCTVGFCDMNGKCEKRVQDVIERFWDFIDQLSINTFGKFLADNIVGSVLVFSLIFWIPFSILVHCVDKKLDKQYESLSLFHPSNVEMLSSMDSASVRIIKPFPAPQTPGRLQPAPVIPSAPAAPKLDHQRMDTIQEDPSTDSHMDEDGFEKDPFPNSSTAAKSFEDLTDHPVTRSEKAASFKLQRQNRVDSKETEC
Chain of fMet-Leu-Phe receptor (P21462 whole entry): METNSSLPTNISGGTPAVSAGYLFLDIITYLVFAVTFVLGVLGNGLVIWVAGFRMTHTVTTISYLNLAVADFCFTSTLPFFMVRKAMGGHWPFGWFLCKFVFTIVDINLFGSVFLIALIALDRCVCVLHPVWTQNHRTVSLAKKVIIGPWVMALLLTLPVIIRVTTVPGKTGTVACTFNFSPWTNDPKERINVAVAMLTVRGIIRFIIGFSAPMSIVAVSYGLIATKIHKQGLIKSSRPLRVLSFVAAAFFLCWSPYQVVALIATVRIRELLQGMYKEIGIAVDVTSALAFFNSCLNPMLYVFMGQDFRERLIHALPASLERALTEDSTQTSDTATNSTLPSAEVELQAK
Chain of Paired box protein Pax-8 (Q06710 whole entry): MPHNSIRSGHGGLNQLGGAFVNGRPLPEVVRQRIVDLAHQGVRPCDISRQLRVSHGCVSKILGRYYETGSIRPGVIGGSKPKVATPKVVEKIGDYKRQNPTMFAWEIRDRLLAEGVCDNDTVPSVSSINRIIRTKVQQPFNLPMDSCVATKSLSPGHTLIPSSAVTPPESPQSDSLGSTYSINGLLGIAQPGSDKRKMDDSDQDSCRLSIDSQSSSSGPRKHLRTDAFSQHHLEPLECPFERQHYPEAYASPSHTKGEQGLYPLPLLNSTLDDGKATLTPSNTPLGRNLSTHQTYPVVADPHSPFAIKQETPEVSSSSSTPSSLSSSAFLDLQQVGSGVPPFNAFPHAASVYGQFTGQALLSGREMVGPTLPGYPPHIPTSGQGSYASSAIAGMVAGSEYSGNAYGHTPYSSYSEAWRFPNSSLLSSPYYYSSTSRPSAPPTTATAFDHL
Chain of Estrogen receptor beta (Q92731 whole entry, the tested form may be a part): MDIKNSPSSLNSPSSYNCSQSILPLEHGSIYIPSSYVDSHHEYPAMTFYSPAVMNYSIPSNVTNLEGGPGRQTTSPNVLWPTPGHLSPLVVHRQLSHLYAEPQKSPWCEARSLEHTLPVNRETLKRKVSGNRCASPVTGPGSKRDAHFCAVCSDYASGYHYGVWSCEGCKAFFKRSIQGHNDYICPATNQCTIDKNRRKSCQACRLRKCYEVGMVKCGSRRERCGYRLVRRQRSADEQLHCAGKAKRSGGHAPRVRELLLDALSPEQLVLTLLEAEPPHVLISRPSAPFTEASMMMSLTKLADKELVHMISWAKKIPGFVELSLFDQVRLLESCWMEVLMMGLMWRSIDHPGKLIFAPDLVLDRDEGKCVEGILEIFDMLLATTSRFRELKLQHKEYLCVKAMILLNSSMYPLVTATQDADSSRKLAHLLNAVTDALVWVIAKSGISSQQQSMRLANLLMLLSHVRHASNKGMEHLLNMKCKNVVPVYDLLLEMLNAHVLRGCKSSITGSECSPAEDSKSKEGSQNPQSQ
Chain of Caspase-8 (Q14790 217-374 limits assumed): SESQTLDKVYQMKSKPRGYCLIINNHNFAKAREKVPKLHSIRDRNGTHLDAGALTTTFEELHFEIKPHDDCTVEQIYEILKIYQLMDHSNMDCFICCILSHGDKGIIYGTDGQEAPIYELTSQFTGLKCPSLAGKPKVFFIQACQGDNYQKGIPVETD
Chain of Caspase-8 (Q14790 385-479 limits assumed): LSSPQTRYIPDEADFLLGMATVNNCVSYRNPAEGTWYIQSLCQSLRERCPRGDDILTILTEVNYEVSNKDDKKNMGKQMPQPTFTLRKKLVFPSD
Chain of Galanin receptor type 3 (O60755 whole entry): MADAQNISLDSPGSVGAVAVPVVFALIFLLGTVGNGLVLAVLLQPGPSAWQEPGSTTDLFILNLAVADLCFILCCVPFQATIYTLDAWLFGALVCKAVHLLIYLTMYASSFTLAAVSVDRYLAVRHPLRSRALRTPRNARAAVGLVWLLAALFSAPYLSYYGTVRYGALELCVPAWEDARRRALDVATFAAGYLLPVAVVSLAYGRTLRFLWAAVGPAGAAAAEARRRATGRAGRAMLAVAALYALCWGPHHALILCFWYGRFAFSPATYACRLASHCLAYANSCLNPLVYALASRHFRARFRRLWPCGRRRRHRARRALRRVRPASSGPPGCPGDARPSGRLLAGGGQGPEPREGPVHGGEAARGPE
Chain of Caspase-7 (P55210 24-198 limits assumed): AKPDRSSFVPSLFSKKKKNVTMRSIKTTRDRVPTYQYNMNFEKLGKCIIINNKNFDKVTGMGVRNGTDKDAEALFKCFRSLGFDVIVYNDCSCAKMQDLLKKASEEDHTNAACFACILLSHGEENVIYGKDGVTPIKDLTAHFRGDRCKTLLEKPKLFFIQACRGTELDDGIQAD
Chain of Caspase-7 (P55210 207-303 limits assumed): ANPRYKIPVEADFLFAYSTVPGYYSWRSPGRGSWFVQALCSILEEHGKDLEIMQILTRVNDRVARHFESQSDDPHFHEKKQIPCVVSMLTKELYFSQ
Chain of Caspase-9 (P55211 1-315 limits assumed): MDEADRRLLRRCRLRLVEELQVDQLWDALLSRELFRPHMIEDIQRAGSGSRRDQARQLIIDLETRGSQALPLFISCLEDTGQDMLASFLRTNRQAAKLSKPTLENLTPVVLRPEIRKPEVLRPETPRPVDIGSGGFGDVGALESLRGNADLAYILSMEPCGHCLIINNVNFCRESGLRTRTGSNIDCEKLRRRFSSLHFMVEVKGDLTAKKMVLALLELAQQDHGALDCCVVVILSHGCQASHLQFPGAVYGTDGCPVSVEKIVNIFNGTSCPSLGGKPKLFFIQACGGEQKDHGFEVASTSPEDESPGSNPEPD
Chain of Caspase-9 (P55211 331-416 limits assumed): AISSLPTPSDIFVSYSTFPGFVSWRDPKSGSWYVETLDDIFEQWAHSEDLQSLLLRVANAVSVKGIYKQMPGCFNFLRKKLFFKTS

## Cc1ccc(S(=O)(=O)Nc2cccc3c2O[C@@H](CN(C)C(=O)Nc2ccc(C(F)(F)F)cc2)[C@@H](C)CN([C@H](C)CO)C3=O)cc1
[1]
  AC50: 12.6 µM (active)
[2]
  AC50: 42.6 µM (active)

## Cc1cccc(C)c1-c1ccc(CN2C(CC(C)C)C(=O)N(Cc3cn(CCO)nn3)CCS2(=O)=O)cc1 (stereo unspecified)
[3]
  IC50: > 69.5 µM (inactive)
[4]
  IC50: 12.3 µM (inactive)

## O=C1Cc2ccccc2C(=O)N1
[5]
  AC50: 1.34 µM (active)
[6]
  IC50: 40.8 nM (active)
[7]
  IC50: 702 nM (active)
[8]
  AC50: 1.32 µM (active)
[9]
  AC50: 1.09 µM (active)
[10]
  AC50: 1.22 µM (active)
[11]
  AC50: 740 nM (active)

## CCN1CCN(C2=C(Nc3ccc(F)cc3)C(=O)c3ccccc3C2=O)CC1
[12]
  AC50: > 70 µM (inactive)
[13]
  AC50: 11.9 µM (active)
[14]
  AC50: 3.49 µM (active)

## CN1CCc2c(sc(NC(=O)c3cc(Cl)sc3Cl)c2C(N)=O)C1
[15]
  AC50: > 52 µM (inactive)
[16]
  AC50: 19.9 µM (active)
[17]
  AC50: > 52 µM (inactive)
[18]
  AC50: 33.7 µM (active)

## Cc1oc(-c2ccc(Cl)cc2)nc1CN1CCCC(C(=O)NCc2cccnc2)C1 (stereo unspecified)
[19]
  AC50: > 70 µM (inactive)
[20]
  AC50: 4.1 µM (active)
[21]
  AC50: < 260 nM (active)
[22]
  AC50: 4.75 µM (active)
[23]
  EC50: > 29.9 µM (inactive)
[24]
  IC50: > 50 µM (not active)
[25]
  AC50: 3.91 µM (active)
[26]
  IC50: 2 µM (active)

## O=[N+]([O-])c1cccc(S(=O)(=O)Nc2cc(SCc3ccccc3)c(O)c3ccccc23)c1
[27]
  CC50: 14.9 µM (active)

## Nc1cc(Cl)ccc1Oc1ccc2ccccc2c1
[28]
  IC50: 29.6 µM (inactive)
[29]
  IC50: > 69.5 µM (inactive)
[30]
  AC50: 5.81 µM (active)

## Cc1cc(NC(=O)c2nn3cccnc3c2Cl)no1
[31]
  EC50: > 67.5 µM (inactive)

## Cc1nn2c(=O)c3c([nH]c2c1-c1ccc(Cl)cc1)CCC3
[32]
  CC50: 14.1 µM (active)
[33]
  IC50: 10.3 µM (active)
[34]
  CC50: 11.2 µM (active)
[35]
  Ki: 14.1 µM (active)
[36]
  CC50: 14.9 µM (active)

## Cc1ccc(S(=O)(=O)Nc2ccc3c(c2)C(=O)N([C@@H](C)CO)C[C@@H](C)[C@@H](CN(C)S(=O)(=O)c2ccc(Cl)cc2)OCCCC[C@H](C)O3)cc1
[37]
  AC50: 24.4 µM (active)
[38]
  AC50: 24.4 µM (active)

## c1ccc(CSc2nnc(-c3cccnc3)o2)nc1
[39]
  IC90: 16 µM (active)
[40]
  IC90: 16 µM (active)

## COc1ccc(OC)c(/C=C/C(=O)NCCc2nc3ccccc3[nH]2)c1
[41]
  EC50: > 69.5 µM (inactive)
